Target: T1, α4β7 (adhesion of RPMI cells to CS-1) (Homo sapiens, UniProt P13612+P26010)
T1 construct: endogenous in cells
T1 sequence (P13612 34-1032): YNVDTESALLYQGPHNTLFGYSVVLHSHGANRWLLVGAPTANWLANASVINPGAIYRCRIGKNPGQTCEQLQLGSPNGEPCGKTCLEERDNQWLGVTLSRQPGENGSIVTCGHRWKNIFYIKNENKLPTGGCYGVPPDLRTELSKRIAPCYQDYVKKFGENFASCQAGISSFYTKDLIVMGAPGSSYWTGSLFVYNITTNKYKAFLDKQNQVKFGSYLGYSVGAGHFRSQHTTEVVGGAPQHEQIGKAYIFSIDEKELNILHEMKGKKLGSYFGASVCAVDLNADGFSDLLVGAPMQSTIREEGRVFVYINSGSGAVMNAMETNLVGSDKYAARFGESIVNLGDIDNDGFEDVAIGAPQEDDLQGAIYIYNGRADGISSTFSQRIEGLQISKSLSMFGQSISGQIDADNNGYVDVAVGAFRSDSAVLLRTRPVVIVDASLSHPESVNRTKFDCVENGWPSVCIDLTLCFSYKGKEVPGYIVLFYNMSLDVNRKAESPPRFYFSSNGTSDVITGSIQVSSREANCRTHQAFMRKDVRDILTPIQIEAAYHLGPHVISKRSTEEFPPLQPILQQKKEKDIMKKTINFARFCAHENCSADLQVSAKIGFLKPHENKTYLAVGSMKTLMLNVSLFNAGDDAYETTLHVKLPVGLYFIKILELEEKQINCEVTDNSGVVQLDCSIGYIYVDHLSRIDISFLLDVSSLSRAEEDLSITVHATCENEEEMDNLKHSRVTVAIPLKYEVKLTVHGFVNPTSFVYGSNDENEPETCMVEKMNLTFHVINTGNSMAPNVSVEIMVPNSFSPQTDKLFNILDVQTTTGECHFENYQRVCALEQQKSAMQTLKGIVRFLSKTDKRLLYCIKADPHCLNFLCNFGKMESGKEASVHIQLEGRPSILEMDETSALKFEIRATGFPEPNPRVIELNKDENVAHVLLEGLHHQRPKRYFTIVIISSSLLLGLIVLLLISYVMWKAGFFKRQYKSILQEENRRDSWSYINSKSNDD
T1 sequence (P26010 20-798): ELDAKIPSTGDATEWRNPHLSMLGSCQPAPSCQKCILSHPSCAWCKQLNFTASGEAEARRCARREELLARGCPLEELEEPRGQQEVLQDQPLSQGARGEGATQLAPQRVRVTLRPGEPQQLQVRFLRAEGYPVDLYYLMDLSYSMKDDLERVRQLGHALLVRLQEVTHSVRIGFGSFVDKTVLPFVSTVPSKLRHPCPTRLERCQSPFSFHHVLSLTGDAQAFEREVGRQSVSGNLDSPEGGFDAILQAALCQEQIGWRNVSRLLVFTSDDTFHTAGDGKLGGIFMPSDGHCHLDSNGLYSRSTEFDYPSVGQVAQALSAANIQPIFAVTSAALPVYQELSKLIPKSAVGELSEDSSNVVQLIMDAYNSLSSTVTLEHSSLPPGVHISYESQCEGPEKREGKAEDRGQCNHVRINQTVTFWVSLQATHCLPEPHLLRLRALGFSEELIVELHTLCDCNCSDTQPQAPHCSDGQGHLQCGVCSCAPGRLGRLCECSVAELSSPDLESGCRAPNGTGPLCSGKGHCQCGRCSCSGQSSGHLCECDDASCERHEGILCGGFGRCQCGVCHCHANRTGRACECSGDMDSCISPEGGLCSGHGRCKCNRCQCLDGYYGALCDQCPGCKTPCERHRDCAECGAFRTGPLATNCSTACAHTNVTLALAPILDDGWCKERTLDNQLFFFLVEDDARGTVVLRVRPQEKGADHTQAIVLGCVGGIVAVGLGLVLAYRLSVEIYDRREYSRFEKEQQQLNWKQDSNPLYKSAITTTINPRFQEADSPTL
Assay: RPMI-CS-1 cell adhesion assay
Type: cell-based
Details: adhesion of RPMI B-cell line (expresses α4β7) to CS-1 peptide coated microwells; read-out: RPMI-CS-1 IC50 value range

Compound | IC50
COc1cc(OCc2c(Cl)cccc2Cl)cc(OC)c1-c1ccc(C[C@H](NC(=O)c2c(Cl)cccc2Cl)C(=O)O)cc1 [Example 221, N-(2,6-Dichlorobenzoyl)-4-[2,6-dimethoxy-4-[(2,6-dichlorophenyl)methoxy]phenyl]-L-phenylalanine] | 1000 to 5000 nM
CC(=O)Nc1cccc(-c2ccc(C[C@H](NC(=O)c3c(Cl)cccc3Cl)C(=O)O)cc2)c1 [Example 124] | 1000 to 5000 nM
COc1cccc(OC)c1-c1ccc(C[C@H](NC(=O)c2cccc(C#N)c2)C(=O)O)cc1 [Example 282] | 1000 to 5000 nM
COC(=O)[C@H](Cc1ccc(-c2ccccc2OCC#N)cc1)NC(=O)c1c(Cl)cccc1Cl [Example 33, N-(2,6-Dichlorobenzoyl)-4-[2-(cyanomethoxy)phenyl]-L-phenylalanine methyl ester] | 300 to 1000 nM
Cc1ncc(COc2ccccc2-c2ccc(C[C@H](NC(=O)c3c(Cl)cccc3Cl)C(=O)O)cc2)s1 [Example 42] | 300 to 1000 nM
COC(=O)Nc1ccccc1-c1ccc(C[C@H](NC(=O)c2c(Cl)cccc2Cl)C(=O)O)cc1 [Example 26, N-(2,6-Dichlorobenzoyl)-4-[2-(methoxycarbonylamino)phenyl]-L-phenylalanine] | 300 to 1000 nM
COC(=O)[C@H](Cc1ccc(-c2ccccc2CNc2ccccn2)cc1)NC(=O)c1c(Cl)cccc1Cl [Example 115] | 1000 to 5000 nM
C[S+]([O-])c1ccccc1-c1ccc(C[C@H](NC(=O)c2c(Cl)cccc2Cl)C(=O)O)cc1 (single isomer, unassigned) [Example 152C, N-(2,6-dichloro-benzoyl)-4-[2-(methylsulfinyl)phenyl]-L-phenylalanine] | 300 to 1000 nM
COC(=O)[C@H](Cc1ccc(-c2ccccc2CNc2cccnc2)cc1)NC(=O)c1c(Cl)cccc1Cl [Example 116] | 1000 to 5000 nM
CCCc1ccc(C(=O)N[C@@H](Cc2ccc(-c3ccccc3OC)cc2)C(=O)O)cc1 [Example 97] | 300 to 1000 nM
CC(C)Oc1ccccc1-c1ccc(C[C@H](NC(=O)c2c(Cl)cccc2Cl)C(=O)O)cc1 [Example 225, N-(2,6-Dichlorobenzoyl)-4-(2-i-propoxyphenyl)-L-phenylalanine] | 1000 to 5000 nM
Nc1cccc(-c2ccc(C[C@H](NC(=O)c3c(Cl)cccc3Cl)C(=O)O)cc2)c1 [Example 122] | 1000 to 5000 nM
O=C(N[C@@H](Cc1ccc(-c2c(Cl)cccc2Cl)cc1)C(=O)O)c1c(Cl)cccc1Cl [Example 141] | 300 to 1000 nM
Nc1ccccc1-c1ccc(C[C@H](NC(=O)c2c(Cl)cccc2Cl)C(=O)O)cc1 [Example 23, N-(2,6-Dichlorobenzoyl)-4-(2-aminophenyl)-L-phenylalanine] | 300 to 1000 nM
COc1ccccc1-c1ccc(C[C@H](NC(=O)c2ccccc2NC(=O)c2c(Cl)cccc2Cl)C(=O)O)cc1 [Example 106] | 1000 to 5000 nM
CCOc1cccc(-c2ccc(C[C@H](NC(=O)c3c(Cl)cccc3Cl)C(=O)O)cc2)c1 [Example 120] | > 5000 nM
COc1ccc(-c2ccc(C[C@H](NC(=O)c3ccc(C(=O)O)cc3)C(=O)O)cc2)cc1 [Example 76] | > 5000 nM
COc1ccccc1-c1ccc(C[C@H](NC(=O)c2ccc(NC(=O)c3c(Cl)cccc3Cl)cc2)C(=O)O)cc1 [Example 107] | 1000 to 5000 nM
COc1ccccc1-c1ccc(C[C@H](NC(=O)c2ccc(NC(=S)NCc3ccccc3)cc2Cl)C(=O)O)cc1 [Example 194, N-[4-(3-Benzylthioureido)-2-chlorobenzoyl]-4-(2-methoxyphenyl)-L-phenylalanine] | 1000 to 5000 nM
N#Cc1sccc1-c1ccc(C[C@H](NC(=O)c2c(Cl)cccc2Cl)C(=O)O)cc1 [Example 219, N-(2,6-Dichlorobenzoyl)-4-(2-cyano-3-thienyl)-L-phenylalanine] | 300 to 1000 nM
COc1ccccc1-c1ccc(C[C@H](NC(=O)c2c(Cl)cccc2Cl)C(=O)NO)cc1 [Example 269, N-(2,6-Dichlorobenzoyl)-4-(2-methoxyphenyl)-L-phenylalanine N-hydroxyamide] | > 5000 nM

Second part, the compound after the results:

IC50 | Compound
< 300 nM | C=CCOc1cc(OC)c(-c2ccc(C[C@H](NC(=O)c3c(Cl)cccc3Cl)C(=O)O)cc2)c(OC)c1 [Example 347]
< 300 nM | COc1ccccc1-c1ccc(C[C@H](NC(=O)c2c(Cl)cccc2Cl)C(=O)O)cc1C(C)O (stereo partly drawn) [Example 73, N-(2,6-Dichlorobenzoyl)-3-(1-hydroxyethyl)-4-(2-methoxyphenyl)-L-phenylalanine]
< 300 nM | COc1ccccc1-c1ccc(C[C@H](NC(=O)c2ccc(S(C)(=O)=O)cc2Cl)C(=O)O)cc1 [Example 211]
< 300 nM | COc1ccccc1-c1ccc(C[C@H](NC(=O)c2c(Cl)cccc2Cl)C(=O)O)cc1NC(C)=O [Example 80]
< 300 nM | COc1cc(Cl)cc(OC)c1-c1ccc(C[C@H](NC(=O)c2c(Cl)cccc2Cl)C(=O)O)cc1 [Example 12, N-(2,6-Dichlorobenzoyl)-4-(4-chloro-2,6-dimethoxyphenyl)-L-phenylalanine]
< 300 nM | CS(=O)(=O)c1ccccc1-c1ccc(C[C@H](NC(=O)c2c(Cl)cccc2Cl)C(=O)O)cc1 [Example 152B, N-(2,6-Dichlorobenzoyl)-4-[2-(methylsulfonyl)phenyl]-L-phenyl-alanine]
< 300 nM | COc1ccccc1-c1ccc(C[C@H](NC(=O)c2ccc(NS(C)(=O)=O)cc2Cl)C(=O)O)cc1 [Example 64, N-[2-Chloro-4-(methanesulfonylamino)benzoyl]-4-(2-methoxyphenyl)-L-phenylalanine]
< 300 nM | COc1cc(CN(C)C)cc(OC)c1-c1ccc(C[C@H](NC(=O)c2c(Cl)cccc2Cl)C(=O)O)cc1 [Example 255, N-(2,6-Dichlorobenzoyl)-4-[2,6-dimethoxy-4-[(N,N-dimethylamino)methyl]phenyl]-L-phenylalanine]
< 300 nM | COc1cccc(OC)c1-c1ccc(C[C@H](NC(=O)c2c(Cl)cccc2Cl)c2nnn[nH]2)cc1 [Example 270, (1S)-N-(2,6-Dichlorobenzoyl)-2-[4-(2,6-dimethoxyphenyl)phenyl]-1-(1H-tetrazol-5-yl) ethylamine]
< 300 nM | CN(C)CCOc1ccc2c(c1-c1ccc(C[C@H](NC(=O)c3c(Cl)cccc3Cl)C(=O)O)cc1)OCO2 [Example 234, N-(2,6-Dichlorobenzoyl)-4-[2,3-methylenedioxy-6-[2-(N,N-dimethylamino)ethoxy]phenyl]-L-phenylalanine]
< 300 nM | COc1ccccc1-c1ccc(C[C@H](NC(=O)c2c(Cl)cccc2Cl)C(=O)O)cc1 [Example 8, N-(2,6-Dichlorobenzoyl)-4-(2-methoxyphenyl)-L-phenylalanine]
< 300 nM | COc1cc(CN2CCN(C)CC2)cc(OC)c1-c1ccc(C[C@H](NC(=O)c2c(Cl)cccc2Cl)C(=O)O)cc1 [Example 248]
< 300 nM | COc1cc(CN2CC(C)OC(C)C2)cc(OC)c1-c1ccc(C[C@H](NC(=O)c2c(Cl)cccc2Cl)C(=O)O)cc1 (stereo partly drawn) [Example 245]
< 300 nM | O=C(N[C@@H](Cc1ccc(-c2ccccc2CO)cc1)C(=O)O)c1c(Cl)cccc1Cl [Example 50, N-(2,6-Dichlorobenzoyl)-4-[2-(hydroxymethyl)phenyl]-L-phenylalanine]
< 300 nM | O=Cc1ccccc1-c1ccc(C[C@H](NC(=O)c2c(Cl)cccc2Cl)C(=O)O)cc1 [Example 45, N-(2,6-Dichlorobenzoyl)-4-(2-formylphenyl)-L-phenylalanine]
